Source: ChEMBL document CHEMBL1141148, “Antidiabetic activity of passive nonsteroidal glucocorticoid receptor modulators” (J Med Chem, 2005)
Values joined by “and” are separate entries in the source; they are usually repeats but may differ in a detail not shown here. Equal entries are not always repeated. Active and inactive are the calls of the source. No cut-off for these calls is given here.

What was measured:
Progesterone receptor = target: T1, Progesterone receptor (Homo sapiens, UniProt P06401); test: Inhibition of human progesterone receptor
T1 sequence (P06401 whole entry): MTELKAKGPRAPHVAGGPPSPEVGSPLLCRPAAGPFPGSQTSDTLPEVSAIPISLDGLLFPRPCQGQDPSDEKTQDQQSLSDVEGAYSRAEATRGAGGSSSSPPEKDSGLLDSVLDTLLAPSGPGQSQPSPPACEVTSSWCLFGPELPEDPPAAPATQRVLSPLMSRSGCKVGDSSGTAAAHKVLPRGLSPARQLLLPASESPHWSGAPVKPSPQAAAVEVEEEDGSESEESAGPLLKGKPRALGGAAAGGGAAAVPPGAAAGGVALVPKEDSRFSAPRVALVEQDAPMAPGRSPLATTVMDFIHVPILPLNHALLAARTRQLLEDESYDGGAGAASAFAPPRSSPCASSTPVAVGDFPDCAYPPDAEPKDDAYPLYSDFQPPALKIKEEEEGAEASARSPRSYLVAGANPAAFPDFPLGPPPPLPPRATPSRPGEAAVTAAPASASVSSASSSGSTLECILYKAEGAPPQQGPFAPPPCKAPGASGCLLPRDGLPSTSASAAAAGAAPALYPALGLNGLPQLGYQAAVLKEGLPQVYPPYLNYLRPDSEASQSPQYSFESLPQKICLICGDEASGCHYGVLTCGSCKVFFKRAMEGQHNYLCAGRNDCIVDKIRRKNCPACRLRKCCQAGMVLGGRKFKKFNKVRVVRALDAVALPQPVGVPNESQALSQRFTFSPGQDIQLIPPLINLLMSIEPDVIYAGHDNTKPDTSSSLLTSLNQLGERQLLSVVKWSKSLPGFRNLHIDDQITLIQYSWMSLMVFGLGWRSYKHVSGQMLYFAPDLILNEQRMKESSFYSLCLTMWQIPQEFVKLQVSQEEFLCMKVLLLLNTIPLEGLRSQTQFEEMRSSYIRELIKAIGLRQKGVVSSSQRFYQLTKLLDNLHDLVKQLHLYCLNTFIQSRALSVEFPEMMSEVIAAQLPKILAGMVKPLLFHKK

Glucocorticoid receptor [1] = target: T2, Glucocorticoid receptor (Homo sapiens, UniProt P04150); test: Antagonistic activity against 5 nM Dexamethasone induced glucocorticoid receptor mediated alkaline phosphatase activity; type: functional
T2 sequence (P04150 whole entry): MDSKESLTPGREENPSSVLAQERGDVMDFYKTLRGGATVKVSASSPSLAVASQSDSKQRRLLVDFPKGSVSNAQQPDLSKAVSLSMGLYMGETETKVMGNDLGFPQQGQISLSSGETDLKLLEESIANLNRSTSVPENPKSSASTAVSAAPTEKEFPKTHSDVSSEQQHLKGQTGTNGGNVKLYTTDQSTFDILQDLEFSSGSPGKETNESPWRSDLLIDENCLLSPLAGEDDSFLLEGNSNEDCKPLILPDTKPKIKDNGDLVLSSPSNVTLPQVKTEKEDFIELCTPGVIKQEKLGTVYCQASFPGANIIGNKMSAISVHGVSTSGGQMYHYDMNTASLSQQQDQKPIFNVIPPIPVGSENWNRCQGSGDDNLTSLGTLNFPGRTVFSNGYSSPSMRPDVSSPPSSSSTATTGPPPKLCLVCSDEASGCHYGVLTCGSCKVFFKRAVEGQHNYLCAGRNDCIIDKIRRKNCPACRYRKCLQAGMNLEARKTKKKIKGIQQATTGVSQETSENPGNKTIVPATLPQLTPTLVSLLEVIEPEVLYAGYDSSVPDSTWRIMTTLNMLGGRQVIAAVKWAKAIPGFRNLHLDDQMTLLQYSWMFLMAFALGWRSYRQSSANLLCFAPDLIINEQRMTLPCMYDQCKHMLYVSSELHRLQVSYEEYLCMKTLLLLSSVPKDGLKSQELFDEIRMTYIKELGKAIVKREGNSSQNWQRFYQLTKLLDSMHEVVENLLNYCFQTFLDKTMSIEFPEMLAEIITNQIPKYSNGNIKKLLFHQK

Glucocorticoid receptor [2] = target: T2, Glucocorticoid receptor
[3] = target: T3, Glucocorticoid receptor (Homo sapiens) (UniProt P04150); details: Huh-7
T3 sequence (whole entry): T2 sequence (P04150 whole entry)

Rattus norvegicus [4] = test: Reduction of uterine weight in pregnant rats after q.d. oral dosing at 3 mpk; type: functional
Rattus norvegicus [5] = test: Reduction of progesterone levels in pregnant rats after q.d. oral dosing at 3 mpk; type: functional
Mus musculus [6] = organism: Mus musculus; test: Initial weight of the ob/ob mice before oral treatment at 100 mpk b.i.d. for 13 days; type: functional
Mus musculus [7] = organism: Mus musculus; test: Initial weight of the ob/ob mice before oral treatment at 100 mpk b.i.d. for 14 days; type: functional
Mus musculus [8] = organism: Mus musculus; test: Final weight of the ob/ob mice after 13 days of oral treatment at 100 mpk b.i.d.; type: functional
[9] = Half life period of the compound in rat hepatocytes was determined; type: ADME, cell-based, Liver, Hepatocyte
[10] = Half life period of the compound in rat liver microsomes was determined; type: ADME, Microsome
[11] = Cholesterol levels in ob/ob mice after 14 days of oral dose at 100 mpk b.i.d.; type: ADME; details: mouse, in vivo, 100 mg/kg, 336 h
[12] = Glucose levels in ob/ob mice after 13 days of oral dose at 100 mpk b.i.d.; type: ADME; details: mouse, in vivo, 100 mg/kg, 312 h
[13] = Glucose levels in ob/ob mice after 14 days of oral dose at 100 mpk b.i.d.; type: ADME; details: mouse, in vivo, 100 mg/kg, 336 h
[14] = Insulin levels in ob/ob mice after 13 days of oral dose at 100 mpk b.i.d.; type: ADME; details: mouse, in vivo, 100 mg/kg, 312 h
[15] = Insulin levels in ob/ob mice after 14 days of oral dose at 100 mpk b.i.d.; type: ADME; details: mouse, in vivo, 100 mg/kg, 336 h
[16] = Free fatty acid (FFA) levels in ob/ob mice after 13 days of oral dose at 100 mpk b.i.d.; type: ADME; details: mouse, in vivo, 100 mg/kg, 312 h
[17] = Free fatty acid (FFA) levels in ob/ob mice after 14 days of oral dose at 100 mpk b.i.d.; type: ADME; details: mouse, in vivo, 100 mg/kg, 336 h
[18] = Alanine aminotransferase (ALT) levels in ob/ob mice after 13 days of oral dose at 100 mpk b.i.d.; type: ADME; details: mouse, in vivo, 100 mg/kg, 312 h
[19] = Aspartate aminotransferase (AST) levels in ob/ob mice after 13 days of oral dose at 100 mpk b.i.d.; type: ADME; details: mouse, in vivo, 100 mg/kg, 312 h
[20] = Liver levels in ob/ob mice after 14 days of oral dose at 100 mpk b.i.d.; type: ADME, tissue-based; details: mouse, in vivo, 100 mg/kg, 336 h
[21] = Glycogen levels in ob/ob mice after 14 days of oral dose at 100 mpk b.i.d.; type: ADME; details: mouse, in vivo, 100 mg/kg, 336 h

`Cc1c(NS(C)(=O)=O)cccc1N(Cc1ccc(Oc2ccc(Br)c(OCC(=O)O)c2)cc1)Cc1ccc(F)cc1F` showed an IC50 (Progesterone receptor) of 140 nM, an IC50 (Glucocorticoid receptor [1]) of 330 nM and an IC50 (Glucocorticoid receptor [2]) of 1.8 nM. The Agonistic activity [3] was “inactive”.
`CC#C[C@]1(O)CC[C@H]2[C@@H]3CCC4=CC(=O)CCC4=C3[C@@H](c3ccc(N(C)C)cc3)C[C@@]21C` [MIFEPRISTONE] showed a Reduction (Rattus norvegicus [4]) of 50%, a Reduction (Rattus norvegicus [5]) of 50% and a Weight (Mus musculus [6]) of 46.1 g. For the same compound, the Weight (Mus musculus [7]) was 41.7 g, the Weight (Mus musculus [8]) was 48.2 g and 51.2 g and the half-life [9] was under 6 min. For the same compound, the half-life [10] was under 19.8 min, the Level [11] was 3660 µg/mL and the Level [12] was 1410 µg/mL. It also gave a Level [13] of 1700 µg/mL, a Level [14] of 0.0075 µg/mL and a Level [15] of 0.014 µg/mL. For the same compound, the Level [16] was 1.5 mequiv/L, the Level [17] was 0.84 mequiv/L and the Level [18] was 1110 units/mL. For the same compound, the Level [19] was 310 units/mL, the Level [20] was 1.8 nmol of pHB/min/mg of protein and the Level [21] was 30.5 mg/gof liver.
